Entries after “also recorded” stand apart in the source; their conditions may differ.
What was measured:
5-HT2A receptor = 5-HT2A receptor (Mus musculus, UniProt P35363); test: head-twitch response; type: in vivo, C57BL/6 mice; settings: mice, 1 mg/kg p.o.; for HTR induction, result in words: 15–30 min window
[1] = plasma pharmacokinetics of psilocin and parent prodrug in healthy mice; settings: for psilocin AUC(0–tlast) relative to ES02: 10 mg/kg p.o., within first 8 h; for time up to which parent derivative is detected systemically postdose: plasma parent prodrug
[2] = test system: mice subjected to a Mild Chronic Stress Paradigm (MCSP); test: marble-burying test; type: in vivo, C57BL/6 mice; settings: for marble-burying behavior in stressed mice, 1 day postdose, in words / marble-burying behavior in stressed mice, up to 7 days, in words: MCSP mice, single p.o. dose, psilocybin 1 mg/kg, NPDs 10 mg/kg
[3] = humans; cited from earlier work
[4] = human participants, 25 mg psilocybin; cited from earlier work

Sequence of 5-HT2A receptor (P35363 whole entry): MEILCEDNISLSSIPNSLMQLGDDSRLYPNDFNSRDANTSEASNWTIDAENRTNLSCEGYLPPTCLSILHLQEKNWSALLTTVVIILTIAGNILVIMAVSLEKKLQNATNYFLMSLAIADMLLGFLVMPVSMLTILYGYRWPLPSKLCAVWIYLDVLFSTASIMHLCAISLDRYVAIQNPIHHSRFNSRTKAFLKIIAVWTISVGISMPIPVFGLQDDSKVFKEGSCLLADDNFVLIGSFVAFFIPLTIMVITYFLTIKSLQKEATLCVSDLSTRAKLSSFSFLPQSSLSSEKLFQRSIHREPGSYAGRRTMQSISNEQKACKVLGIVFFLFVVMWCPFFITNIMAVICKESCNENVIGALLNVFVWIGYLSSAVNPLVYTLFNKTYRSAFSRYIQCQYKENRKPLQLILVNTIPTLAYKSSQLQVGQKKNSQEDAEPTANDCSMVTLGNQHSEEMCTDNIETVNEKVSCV

CN(C)CCc1c[nH]c2cccc(OC(=O)OCc3ccccc3)c12 [C02, Benzyl (3-(2-(Dimethylamino)ethyl)-1H-indol-4-yl) Carbonate]
HTR induction, result in words (5-HT2A receptor): statistically significant psychomimetic effects in healthy mice

CN(C)CCc1c[nH]c2cccc(OC(=O)c3c(F)c(F)c(F)c(F)c3F)c12 [ES03, 3-(2-(Dimethylamino)ethyl)-1H-indol-4-yl 2,3,4,5,6-pentafluorobenzoate]
HTR induction, result in words (5-HT2A receptor; 1 mg/kg): induced HTR at an intensity statistically equivalent to the natural psychedelic compound; also recorded: produced HTR responses equivalent to psilocybin

CN(C)CCc1c[nH]c2cccc(OC(=O)c3cccc4c3OCCO4)c12 [ES04, 3-(2-(Dimethylamino)ethyl)-1H-indol-4-yl 2,3-dihydrobenzo[b][1,4]dioxine-5-carboxylate]
HTR induction, result in words (5-HT2A receptor): appeared not to induce a notable hallucinogenic effect

CN(C)CCc1c[nH]c2cccc(OC(=O)OCC3CC3)c12 [C03, Cyclopropylmethyl (3-(2-(Dimethylamino)ethyl)-1H-indol-4-yl) Carbonate]
HTR induction, result in words (5-HT2A receptor): appeared not to induce a notable hallucinogenic effect

CCCC(=O)OCOc1cccc2[nH]cc(CCN(C)C)c12 [EE01, ((3-(2-(Dimethylamino)ethyl)-1H-indol-4-yl)oxy)methyl Butyrate]
HTR induction, result in words (5-HT2A receptor): appeared not to induce a notable hallucinogenic effect

COc1ccc(C(=O)Oc2cccc3[nH]cc(CCN(C)C)c23)cc1 [ES01, 3-(2-(Dimethylamino)ethyl)-1H-indol-4-yl 4-Methoxybenzoate]
HTR induction, result in words (5-HT2A receptor; 1 mg/kg): induced HTR at an intensity statistically equivalent to the natural psychedelic compound; also recorded: produced HTR responses equivalent to psilocybin
psilocin AUC(0–tlast) relative to ES02 [1]: greater than twice that of ES02
marble-burying behavior in stressed mice, 1 day postdose, in words [2]: significant reduction in marble-burying behavior
marble-burying behavior in stressed mice, up to 7 days, in words [2]: completely rescuing the elevated anxiety-like condition to the innate behavioral state up to 7 days after treatment

CN(C)CCc1cn(C(=O)OCc2ccccc2)c2cccc(OC(=O)OCc3ccccc3)c12 [C01, Benzyl 4-(((Benzyloxy)carbonyl)oxy)-3-(2-(dimethylamino)ethyl)-1H-indole-1-carboxylate]
HTR induction, result in words (5-HT2A receptor): ineffective in inducing HTR

CN(C)CCc1c[nH]c2cccc(O[Si](C)(C)C(C)(C)C)c12 [SE01, 2-(4-((tert-Butyldimethylsilyl)oxy)-1H-indol-3-yl)-N,N-dimethylethanamine]
HTR induction, result in words (5-HT2A receptor): induced notable HTR
time up to which parent derivative is detected systemically postdose [1]: up to 8 h

CC(C)[Si](Oc1cccc2[nH]cc(CCN(C)C)c12)(C(C)C)C(C)C [SE02, N,N-Dimethyl-2-(4-((triisopropylsilyl)oxy)-1H-indol-3-yl)ethanamine]
HTR induction, result in words (5-HT2A receptor): induced notable HTR
time up to which parent derivative is detected systemically postdose [1]: up to 8 h

CN(C)CCc1c[nH]c2cccc(OC(=O)SCc3ccccc3)c12 [T01, S-Benzyl O-(3-(2-(Dimethylamino)ethyl)-1H-indol-4-yl) Carbonothioate]
HTR induction, result in words (5-HT2A receptor; 1 mg/kg): induced notable HTR; also recorded: statistically significant psychomimetic effects in healthy mice
psilocin (Cmax) produced relative to psilocybin ([1]; 1 mg/kg i.v., 1 mg/kg): three to five times greater than psilocybin; also recorded: approximately four times greater psilocin relative to the natural prodrug
psilocin AUC(0–tlast) relative to ES02 [1]: greater than twice that of ES02
marble-burying behavior in stressed mice, 1 day postdose, in words [2]: significant reduction in marble-burying behavior
marble-burying behavior in stressed mice, up to 7 days, in words [2]: completely rescuing the elevated anxiety-like condition to the innate behavioral state up to 7 days after treatment

CN(C)CCc1c[nH]c2cccc(OC(=O)CC3CC3)c12 [ES02, 3-(2-(Dimethylamino)ethyl)-1H-indol-4-yl 2-cyclopropylacetate]
HTR induction, result in words (5-HT2A receptor): induced HTR at an intensity statistically equivalent to the natural psychedelic compound
marble-burying behavior in stressed mice, 1 day postdose, in words [2]: significant reduction in marble-burying behavior

CN(C)CCc1c[nH]c2cccc(OP(=O)(O)O)c12 [PCB, psilocybin, reference compound]
duration of statistically enhanced HTR relative to vehicle (5-HT2A receptor): up to 90 min
observation window of peak HTR intensity (5-HT2A receptor): 15 to 30 min
duration of psychedelic episode from time of dosing [3]: up to 6 h
duration of systemic psilocin exposure postadministration [4]: up to 24 h
time of peak plasma psilocin level [4]: 2 h
marble-burying behavior in stressed mice, 1 day postdose, in words [2]: significantly reduced number of buried marbles
marble-burying behavior in stressed mice, up to 7 days, in words [2]: long-term benefits lasting up to 7 days post-treatment
effect on innate burying behavior in nonstressed mice ([2]; nonstressed mice, 1 mg/kg p.o.): no significant effect on the innate burying behavior in nonstressed mice
